Data set [1] relates to L. monocytogenes clinical strain. As to the kind of experiment: MIC by CLSI broth micro-dilution, L. monocytogenes. It is filed as cell-based. The following applies: Listeria monocytogenes, BHI medium, read-out: Minimum inhibitory concentration. The protocol: (§1) Aminoxy acids were synthesized by the standard peptide coupling procedures. Minimum inhibitory concentration was determined using CLSI broth micro-dilution method in 96-wells microtitre plates. Minimum inhibitory concentration is defined as the lowest concentration of the compound that inhibits visible growth of the bacteria. All experiments were performed three times. 24 compounds including aminoxy acid monomers and dipeptides have been identified to show toxicity against multidrug resistant Staphylococcus aureus Mu3 and summarized in Table 1. The minimum inhibitory concentration of compound 8 and compound 35 on other gram-positive bacteria was also evaluated and summarized in Table 2. […] As shown in FIGS. 3A-3B there are no observable hemolysis for compound 8 and compound 35 towards human red blood cell.
(§2) Bacteria were streaked from the glycerol stock into BHI agar and were incubated overnight. Single colony was picked for the overnight culture in cation-adjusted Mueller Hinton broth (CAMH), LB or BHI. The overnight culture was sub-cultured and regrew to exponential phase for the experiment.
(§3) MIC was determined by CLSI broth micro-dilution method in 96-wells microtitre plates. […] Optical density was recorded by DTX 880 multimode detector (Beckman Coulter, California, US). […]
For orientation: In broth dilution the organism is exposed to a series of concentrations in liquid medium.

A further data set concerns MRSA-USA300. Nature of the data set: MIC by CLSI broth micro-dilution, MRSA-USA300. It is filed as cell-based. As to conditions: Staphylococcus aureus, read-out: Minimum inhibitory concentration. On the procedure: as §1, §2, §3
Data set [2] concerns pre-established Staphylococcus aureus ATCC 35556 biofilm. As to the kind of experiment: Reduction of established biofilm (crystal violet). In kind it is cell-based. The following applies: 24 hours pre-established biofilm treated 24 hours, concentration dependent. On the procedure:
24 hours pre-established Staphylococcus. aureus ATCC 35556 biofilm was treated with various concentrations of compound 8, compound 35 or 1% DMSO as negative control for 24 hours. Biofilm was quantified using crystal violet. The data were normalized to DMSO (100% biofilm) and represent average values±S.D. (n=9 per group). Statistical analysis was performed by ANOVA with Dunnett's post-test to calculate p-values adjusted for multiple comparisons with DMSO as control condition (*p<0.05; **p<0.01; ***p<0.001).
Briefly, overnight cultures of Staphylococcus aureus ATCC 35556 in TSB were diluted 1:100 and regrow for 2.5 hours at 37° C., 250 rpm. The bacteria were diluted 1:100 into fresh TSB and 200 μL bacteria in TSB was added to each well of a flat-bottom 96-well plate (200 μL/well). The plate was incubated at 37° C. for 24 hours to establish biofilms. After 24 hours, the supernatant was removed and washed by PBS (200 μL) 2 times. Premixed solution of TSB and compound was prepared in a separate 96-well-plate (200 μL/well; two-folded serial dilutions; final DMSO concentration of maximum 1%). 200 μL compound in TSB was transferred to the plates with established biofilms. […] Following a 1:4 dilution step (33% acetic acid), the optical density was measured at 595 nm by Beckman Coulter DTX 880 Multimode Detector. […]

The subject of the next data set is human red blood cell. Nature of the data set: Hemolysis assay. In kind it is cell-based. The following applies: up to the highest concentration 100 μM, 2 hours, 37° C. The protocol: FIGS. 3A-3B are diagrams showing the hemolysis ability of compound 8 (FIG. 3A) and compound 35 (FIG. 3B) towards human red blood cell. % Hemolysis were mean±S.D of biological triplicates normalized to 0.1% triton X-100 as positive control.
Citrate-phosphate-dextrose (CPD) human whole blood was obtained from Hong Kong Red Cross. Whole blood was centrifuged in 1000 rpm for 10 minutes to remove the upper plasma layer. The remaining portion was washed by 1×PBS 3 times or until the upper PBS layer was transparent. The upper PBS layer was removed and the lower blood cell layer was diluted into 2% in PBS. 200 μL 2% blood in PBS was then added to round-bottom 96-well plate. Compounds were subsequently added to 96-well plate on 1% DMSO concentration. After incubation in 37° C. for 2 hours, the round-bottom 96-well plate was centrifuged in 1000 rpm for 10 minutes. 50 μL supernatant was transferred to a flat-bottom 96-well plate. Absorbance at 405 nm was then measured by Beckman Coulter DTX 880 Multimode Detector. Biological replicates were performed.

The subject of data set [3] is Staphylococcus aureus ATCC 29213. As to the kind of experiment: Autolysis, optical density of culture. It is filed as cell-based. The following applies: 10×MIC, 24 hours. The protocol: Staphylococcus aureus ATCC 29213 in CAMH was challenged with […] compounds 8 or compound 35. OD595 was measured after 24 hours. Data represented the mean±S.D. of biological triplicates. Statistical analysis was performed by unpaired t test in 95% confidence interval (*=p<0.05; **p<0.01; ***p<0.001; ****[…]).
The overnight culture of Staphylococcus aureus ATCC 29213 was subcultured, regrown to exponential phase and then diluted to OD595=0.4. Bacteria were treated by 10×MIC of compound 8 and compound 35. At T=24 hour, OD595 was measured.

The subject of a further data set is MSSA ATCC 35556. Nature of the data set: MIC by CLSI broth micro-dilution, MSSA ATCC 35556. It is filed as cell-based. As to conditions: Staphylococcus aureus, read-out: Minimum inhibitory concentration. On the procedure: as §1, §2, §3
A further data set concerns M. smegmatis mc^2155. As to the kind of experiment: MIC by CLSI broth micro-dilution, M. smegmatis. In kind it is cell-based, Mycobacterium smegmatis. As to conditions: Mycolicibacterium smegmatis; M. smegmatis mc^2155, BHI medium; read-out: Minimum inhibitory concentration. The protocol: as §1, §2, §3
In a further data set the test system is MSSA ATCC 29213. As to the kind of experiment: MIC by CLSI broth micro-dilution, MSSA ATCC 29213. It is filed as cell-based. As to conditions: Staphylococcus aureus, read-out: Minimum inhibitory concentration. The protocol: as §1, §2, §3

Each structure is given as a SMILES string. Values after ≈ are worked out from the molar mass of the structure shown.

In the case of `CC(C)C[C@H](ONC(=O)[C@@H](COCc1ccccc1)ONC(=O)c1cc(C(F)(F)F)cc(C(F)(F)F)c1)C(=O)Nc1ccc2c(c1)OC(F)(F)O2` [Compound 35], the MIC amounted to 0.78 µM (≈ 0.574 µg/mL) in data set [1]; 3.13 µM (≈ 2.3 µg/mL) in the data set with MRSA-USA300; 0.78 µM (≈ 0.574 µg/mL) in the data set on MSSA ATCC 35556; 1.56 µM (≈ 1.15 µg/mL) in the data set with M. smegmatis mc^2155; 1.56 µM (≈ 1.15 µg/mL) in the data set with MSSA ATCC 29213. Also, in data set [2], the “established Staphylococcus aureus biofilm” value was “significantly reduced”. Further, the “hemolytic activity on human blood cell” value in the data set on human red blood cell is listed as “didn't have observable hemolytic activity”. Further, in data set [3], the “optical density (OD595) of culture, accelerated autolysis” value is “reduction of the optical density”.

For the compound `CC(C)C[C@H](ONC(=O)[C@@H](COCc1ccccc1)ONC(=O)c1cc(C(F)(F)F)cc(C(F)(F)F)c1)C(=O)Nc1ccccc1` [Compound 8], the MIC in data set [1] was found to be 6.25 µM (≈ 4.1 µg/mL); with MRSA-USA300, 3.13 µM (≈ 2.05 µg/mL); in the data set with MSSA ATCC 35556, 3.13 µM (≈ 2.05 µg/mL); in the data set on M. smegmatis mc^2155 it was 12.5 µM (≈ 8.19 µg/mL); in the data set on MSSA ATCC 29213 it was 3.13 µM (≈ 2.05 µg/mL). Moreover, the “established Staphylococcus aureus biofilm” value in data set [2] was “significantly reduced”. For the same compound, in the data set on human red blood cell, the “hemolytic activity on human blood cell” value was “didn't have observable hemolytic activity”. Besides, in data set [3], the “optical density (OD595) of culture, accelerated autolysis” value was “reduction of the optical density”.
